Earlier results on one molecule are cited in patent US12285520B2, “Product and manufacturing process for a gum” (McNeil AB, priority 2020, dated 2025).

The conditions of this data set: nicotine; stated as general knowledge, no experiment described.

`CN1CCCC1c1cccnc1` (stereo not shown) [nicotine]: the pKa entry is “approximately 7.8”.
